Experimental data published in patent US20240301474A1, “NUCLEASES FOR SIGNAL AMPLIFICATION” (Amazon Technologies, Inc., priority 2021, published 2024).
“Also recorded” adds a separate entry of the source. {FAM} = 6-carboxyfluorescein (IDT 56-FAM); {IABkFQ} = Iowa Black FQ quencher

Key:
PfuCsx1 [1] = assay: Reporter preference assay, PfuCsx1 activated by cA4; settings: 100 nM PfuCsx1, 10 μM cA4, FIG. 21
Procedure: (§4) Varying concentrations of nuclease (SyCsx1, PfuCsx1, or TtCsm6) in reaction buffer (2.1 NEB Buffer-50 mM NaCl, 10 mM Tris-HCl, 10 mM MgCl2, 100 μg/ml BSA) with 1 U/μl murine RNase inhibitor (NEB) and 600 nM FAM-Q reporter (IDT) was mixed with varying concentrations of cA3, cA4, cA6, rA3>P or rA4>P (Biolog or IDT). Negative control was water free of activator. Measurements were taken at 37° C. every 1 min in a Tecan Infinite 200 PRO plate reader (λex, 485 nm; λem, 535 nm).
(§5) The objective of these experiments was to determine the preferred reporters for SyCsx1, PfuCsx1, and TtCsm6 incubated with cyclic activator cA4.

TtCsm6 [2] = molecular target: T1, TtCsm6 (Thermus thermophilus, UniProt Q53W17, G18R); settings: 100 nM TtCsm6, 10 μM cA4, FIG. 22
T1 sequence (Q53W17 whole entry G18R): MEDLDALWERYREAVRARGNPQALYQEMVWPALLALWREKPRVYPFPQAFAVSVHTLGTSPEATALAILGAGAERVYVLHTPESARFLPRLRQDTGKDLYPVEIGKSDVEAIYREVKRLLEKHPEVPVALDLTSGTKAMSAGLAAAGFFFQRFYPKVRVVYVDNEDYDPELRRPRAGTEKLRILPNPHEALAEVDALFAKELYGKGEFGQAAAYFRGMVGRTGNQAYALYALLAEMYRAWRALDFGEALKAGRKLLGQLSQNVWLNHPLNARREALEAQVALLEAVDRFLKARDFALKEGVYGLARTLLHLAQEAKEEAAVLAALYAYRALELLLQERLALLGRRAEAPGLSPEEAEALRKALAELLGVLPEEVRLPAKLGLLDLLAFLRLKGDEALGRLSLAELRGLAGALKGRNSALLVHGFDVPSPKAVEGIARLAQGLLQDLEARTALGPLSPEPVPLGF
Procedure: as §4, §5

SyCsx1 [3] = assay: Reporter preference assay, SyCsx1 activated by cA4; settings: 100 nM SyCsx1, 10 μM cA4, FIG. 20
Sequence of SyCsx1 (as listed by the source): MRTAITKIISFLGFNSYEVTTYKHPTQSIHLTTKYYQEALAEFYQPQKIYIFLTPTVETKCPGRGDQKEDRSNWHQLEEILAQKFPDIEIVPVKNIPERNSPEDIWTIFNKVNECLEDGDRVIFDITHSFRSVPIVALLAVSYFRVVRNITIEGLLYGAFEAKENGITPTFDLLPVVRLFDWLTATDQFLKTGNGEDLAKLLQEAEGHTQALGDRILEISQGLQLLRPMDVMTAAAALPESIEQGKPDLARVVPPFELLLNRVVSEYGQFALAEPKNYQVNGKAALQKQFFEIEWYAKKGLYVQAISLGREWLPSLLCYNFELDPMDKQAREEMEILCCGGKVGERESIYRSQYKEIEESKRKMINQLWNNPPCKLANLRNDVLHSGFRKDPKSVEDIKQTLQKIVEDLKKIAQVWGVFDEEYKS
Procedure: as §4, §5

SyCsx1 [4] = assay: Activation of SyCsx1 by linear and cyclic activators (FAM-Q fluorescence); settings: 100 nM SyCsx1, FAM-Q polyC ssRNA reporter; for activation of SyCsx1 (fluorescence time course): 37° C., FIG. 14A/14B; for rapidity of SyCsx1 activation (time until maximum fluorescence): FIG. 14B
Procedure: (§6) The objective of these experiments was to assess activation of SyCsx1, PfuCsx1, and TtCsm6 by incubating the nucleases with cyclic or linear activators.
as §4

PfuCsx1 [5] = assay: Activation of PfuCsx1 by linear and cyclic activators (FAM-Q fluorescence); settings: 100 nM PfuCsx1, FAM-Q polyA ssRNA reporter, FIG. 15
Procedure: as §6, §4

TtCsm6 [6] = molecular target: T1, TtCsm6; assay: Activation of TtCsm6 by linear and cyclic activators (fluorescence); settings: 100 nM TtCsm6, RNAse Alert (IDT) reporter, FIG. 16
Procedure: as §6, §4

NucC enzyme = NucC enzyme (Escherichia coli, UniProt D7Y2H5); assay: NucC activation by cyclic and linear activator with dsM13 plasmid; type: biochemical; settings: 10 nM NucC, 10 nM activator, 37° C., 4 hours
Procedure: The objective of this experiment was to achieve activation of the NucC enzyme by incubating this enzyme with its cyclic (c-triAMP) and linear (triAMP)>P activator and the dsM13 plasmid.
The conditions that were tested are outlined in Table 14 below.
A NucC Mix (dsM13) was prepared as outlined in Table 15 below.
The mixture described in Table 15 was divided into two PCT tubes. The mixture was then incubated at 37° C. for 4 hours. Next, the samples were run on a 1.5% agarose gel.

PfuCsx1 [7] = assay: Limit of detection (LoD) assay, PfuCsx1 activated by rA4>P; settings: 100 nM PfuCsx1, FAM-Q polyA reporter; 0.01, 0.1, 1, 10 μM tested; FIG. 18
Procedure: as §4

TtCsm6 [8] = molecular target: T1, TtCsm6; assay: Limit of detection (LoD) assay, TtCsm6 activated by rA4>P; settings: 100 nM TtCsm6, FAM-Q polyC reporter; 0.01, 0.1, 1, 10 μM tested; FIG. 19
Procedure: as §4

SyCsx1 [9] = assay: Limit of detection (LoD) assay, SyCsx1 activated by rA4>P; settings: 10 nM SyCsx1, FAM-Q polyC reporter; 0.1, 1, 10 nM tested; FIG. 17
Procedure: as §4

[10] = tested on: ssM13 (M13mp18 single-stranded plasmid); assay: NucC activity assay with M13 plasmid (single-stranded); type: biochemical; settings: 10 nM NucC, 10 nM c(triAMP), 37° C., 2:30 hours, 1% agarose gel
Procedure: (§1) The objective of this experiment was to determine whether the NucC enzyme cleaves both double-stranded DNA and single-stranded DNA by incubating the enzyme with its cyclic activator (c-triAMP) and the dsM13 or ssM13 plasmid.
(§2) The conditions that were tested are outlined in Table 11 below.
A second NucC Mix (ssM13) was prepared as outlined in Table 13 below.
(§3) Each mixture described in Table 12 and Table 13 was divided into two PCT tubes. The mixture was then incubated at 37° C. for 2:30 hours. Next, the samples were run on a 1% agarose gel.

[11] = tested on: dsM13 (M13mp18 RF I plasmid); assay: NucC activity assay with M13 plasmid (double-stranded); type: biochemical; settings: 10 nM NucC, 10 nM c(triAMP), 37° C., 2:30 hours, 1% agarose gel
Procedure: as §1, §2
A first NucC Mix (dsM13) was prepared as outlined in Table 12 below.
as §3

Sequence of PfuCsx1 (as listed by the source): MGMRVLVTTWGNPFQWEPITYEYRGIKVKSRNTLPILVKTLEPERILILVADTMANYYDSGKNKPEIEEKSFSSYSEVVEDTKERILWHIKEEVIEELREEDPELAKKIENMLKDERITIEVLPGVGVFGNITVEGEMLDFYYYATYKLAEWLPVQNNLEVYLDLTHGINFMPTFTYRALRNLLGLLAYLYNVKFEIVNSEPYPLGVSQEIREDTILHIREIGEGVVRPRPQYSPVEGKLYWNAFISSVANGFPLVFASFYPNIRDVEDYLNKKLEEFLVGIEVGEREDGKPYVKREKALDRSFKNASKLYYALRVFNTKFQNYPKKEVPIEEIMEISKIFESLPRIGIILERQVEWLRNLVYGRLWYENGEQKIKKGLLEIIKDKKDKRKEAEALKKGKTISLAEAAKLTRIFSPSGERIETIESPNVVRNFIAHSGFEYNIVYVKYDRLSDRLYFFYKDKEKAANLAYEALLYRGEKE

5′-/56 FAM/rArUrGrUrCrCrCrCrUrGrArA/3IABKFQ/-3′ (AUGUCCCCUGAA; RNA, 5' {FAM}, 3' {IABkFQ}, backbone not given here) [FAM-Q UCU]
reporter preference upon cleavage by PfuCsx1 (PfuCsx1 [1]): best reporters
reporter preference upon cleavage by TtCsm6 (TtCsm6 [2]): best reporters
reporter preference upon cleavage by SyCsx1 (SyCsx1 [3]): best reporters

cyclic hexaAMP [cA6]
activation of SyCsx1 (fluorescence time course) (SyCsx1 [4]): activated

cyclic tetraAMP [cA4]
activation of PfuCsx1 (fluorescence time course) (PfuCsx1 [5]): activated
activation of SyCsx1 (fluorescence time course) (SyCsx1 [4]): activated
rapidity of SyCsx1 activation (time until maximum fluorescence) (SyCsx1 [4]): most rapid activations
activation of TtCsm6 (fluorescence time course) (TtCsm6 [6]): activated

cyclic triAMP [c-triAMP]
degradation of the dsM13 plasmid by NucC in the presence of activator (NucC enzyme; FIG. 13): complete degradation
activation of the NucC enzyme (NucC enzyme; dsM13 plasmid, 1.5% agarose gel): achieved; also recorded: activated

linear tetraAMP>P [rA4>P]
activation of PfuCsx1 (fluorescence time course) (PfuCsx1 [5]): activated
activation of SyCsx1 (fluorescence time course) (SyCsx1 [4]): activated
rapidity of SyCsx1 activation (time until maximum fluorescence) (SyCsx1 [4]): most rapid activations
activator concentration that activates PfuCsx1 (detection limit) (PfuCsx1 [7]): ≥ 1 µM
activation of TtCsm6 (fluorescence time course) (TtCsm6 [6]): activated
activator concentration that activates TtCsm6 (detection limit) (TtCsm6 [8]): ≥ 1 µM
activator concentration that activates SyCsx1 (detection limit) (SyCsx1 [9]): 0.1 nM

linear triAMP>P [rA3>P]
activation of SyCsx1 (fluorescence time course) (SyCsx1 [4]): activated

B1: NucC: nuclease; amino acid sequence SEQ ID NO: 2 (NucC wild sequence) (protein, listed as Escherichia coli)
chain: MSDWSLSQLFASLHEDIQLRLGTARKAFQHPGAKGDASEGVWIEMLDTYLPKRYQAANAFVVDSLGNFSDQIDVVVFDRQYSPFIFKFNEQIIVPAESVYAVFEAKQSASADLVAYAQRKVASVRRLHRTSLPIPHAGGTYPAKPLIPILGGLLTFESDWSPALGMSFDKALNGDLSDGRLDMGCVASHGHFYFNNIDSKFNFEHGNKPATAFLFRLIAQLQFSGTVPMIDIDAYGKWLAN
cleavage of single-stranded nucleic acid [10]: not
cleavage of double-stranded DNA [11]: cleaved
